Tests used:
Assay type in all cases: functional, cell-based
A549 = experiment: Cytotoxicity against human A549 cells after 48 hrs by MTT assay; conditions: A549, 48 h
MCF7 = experiment: Cytotoxicity against human MCF7 cells after 48 hrs by MTT assay; conditions: MCF7, 48 h
HeLa [1] = experiment: Cytotoxicity against human HeLa cells after 48 hrs by MTT assay
DU-145 = experiment: Cytotoxicity against human DU145 cells after 48 hrs by MTT assay; conditions: DU-145, 48 h
K562 = experiment: Cytotoxicity against human K562 cells after 48 hrs by MTT assay; conditions: K562, 48 h
U-251 = experiment: Cytotoxicity against human U251 cells after 48 hrs by MTT assay; conditions: U-251, 48 h
BGC-823 = experiment: Cytotoxicity against human BGC823 cells after 48 hrs by MTT assay; conditions: BGC-823, 48 h
HeLa [2] = experiment: Cytotoxicity against human HeLa cells by MTT assay

Row | Structure (SMILES) | IC50 (A549) [nM] | IC50 (MCF7) [nM] | IC50 (HeLa [1]) [nM] | IC50 (DU-145) [nM] | IC50 (K562) [nM] | IC50 (U-251) [nM] | IC50 (BGC-823) [nM] | IC50 (HeLa [2]) [nM]
1 | COc1ccc2nc([C@@H]3c4cc5c(cc4[C@@H](c4cc(OC)c(OC)c(OC)c4)[C@H]4C(=O)OC[C@H]34)OCO5)oc2c1 | 1200 to 5300 | 1200 to 5300 | 1200 to 5300 | 1200 to 5300 |  |  |  | 
2 | COc1cc([C@@H]2c3cc4c(cc3[C@@H](Nc3cccc(CN5CCCCC5)c3)[C@H]3COC(=O)[C@H]23)OCO4)cc(OC)c1OC | 14500 |  |  |  | 1100 | 400 |  | 
3 | COc1cc([C@@H]2c3cc4c(cc3[C@@H](Nc3ncccc3F)[C@H]3COC(=O)[C@H]23)OCO4)cc(OC)c1O |  | 1420 | 60 |  |  |  | 960 | 
4 | COc1cc([C@@H]2c3cc4c(cc3[C@@H](NC(=O)C(=O)c3c[nH]c5ccc(C(=O)N6CCCCC6)cc35)[C@H]3COC(=O)[C@H]23)OCO4)cc(OC)c1OC |  |  |  |  |  |  |  | 5570
5 | COc1cc([C@@H]2c3cc4c(cc3[C@@H](NC(=O)C(=O)c3c[nH]c5ccc(C(=O)NC(C)C)cc35)[C@H]3COC(=O)[C@H]23)OCO4)cc(OC)c1OC |  |  |  |  |  |  |  | 3920
6 | CCN(CC)C(=O)c1ccc2[nH]cc(C(=O)C(=O)N[C@@H]3c4cc5c(cc4[C@@H](c4cc(OC)c(OC)c(OC)c4)[C@H]4C(=O)OC[C@@H]43)OCO5)c2c1 |  |  |  |  |  |  |  | 5190
7 | COc1cc([C@@H]2c3cc4c(cc3[C@@H](c3nc5ccccc5o3)[C@H]3COC(=O)[C@H]23)OCO4)cc(OC)c1OC | 1200 to 5300 | 1200 to 5300 | 1200 to 5300 | 1200 to 5300 |  |  |  | 
8 | COc1cc([C@@H]2c3cc4c(cc3[C@@H](Nc3ncccc3F)[C@H]3COC(=O)[C@H]23)OCO4)cc(OC)c1OC |  | 4490 | 200 |  |  |  | 2180 | 
9 | COc1cc([C@@H]2c3cc4c(cc3[C@@H](c3nc5ccc(Cl)cc5o3)[C@H]3COC(=O)[C@H]23)OCO4)cc(OC)c1OC | 1200 to 5300 | 1200 to 5300 | 1200 to 5300 | 1200 to 5300 |  |  |  | 
10 | COc1cc([C@@H]2c3cc4c(cc3[C@@H](c3nc5ccc(OC)c(OC)c5o3)[C@H]3COC(=O)[C@H]23)OCO4)cc(OC)c1OC | 1800 | 2000 | 1200 to 5300 | 1200 to 5300 |  |  |  | 
11 | COc1cc([C@@H]2c3cc4c(cc3[C@@H](O[C@@H]3O[C@@H]5CO[C@@H](C)O[C@H]5[C@H](O)[C@H]3O)[C@H]3COC(=O)[C@H]23)OCO4)cc(OC)c1O [ETOPOSIDE] | 2030 to 5740 | 2030 to 5740 | 2030 to 5740 | 2030 to 5740 |  |  |  | 
